For 24 compounds, IC50 results are on record in patent publication US9073821B2, “Hydroxamic acid derivative” (priority 2010, dated 2015).

Some results are limits rather than exact numbers.

For the first assay, the target named is Pseudomonas aeruginosa LpxC enzyme (Pseudomonas aeruginosa (strain ATCC 15692 / DSM 22644 / CIP 104116 / JCM 14847 / LMG 12228 / 1C / PRS 101 / PAO1), UniProt P47205). The experiment in a line: biochemical. Format: biochemical. Conditions: class symbols A/B/C by IC50; Table 3; read-out: Enzyme inhibitory activity (inhibitory activity on Pseudomonas aeruginosa LpxC enzyme).
For `CN(C(=O)c1ccc(C#Cc2ccc(CN3CCCOCC3)cc2)cc1)C(C(=O)NO)C(=O)NCc1ccccn1` (stereo not drawn) [Compound 520, N-hydroxy-2-{methyl[(4-{[4-(1,4-oxazepan-4-ylmethyl)phenyl]ethynyl}phenyl)carbonyl]amino}-N′-(pyridin-2-ylmethyl)propanediamide], the IC50 was less than 0.01 µM.

`CNC(=O)C(C(=O)NO)N(C)C(=O)c1ccc(C#Cc2ccc(CN3CC(C)(C)C3)cc2)cc1` (stereo not drawn) [Compound 525, 2-[{[4-({4-[(3,3-dimethylazetidin-1-yl)methyl]phenyl}ethynyl)phenyl]carbonyl}(methyl)amino]-N-hydroxy-N′-methylpropanediamide]: the IC50 is 0.01 to 0.1 µM.

On to `CNC(=O)C(C(=O)NO)N(C)C(=O)c1ccc(-c2ccc(-c3ccc(CO)o3)cc2)cc1` (stereo not drawn) [Compound 499, N-hydroxy-2-[({4′-[5-(hydroxymethyl)furan-2-yl]biphenyl-4-yl}carbonyl)(methyl)amino]-N′-methylpropanediamide], for which the IC50 was less than 0.01 µM.

In the case of `CNC(=O)C(C(=O)NO)N(C)C(=O)c1ccc(C#Cc2ccc(CN3CCCC(C)(C)C3)cc2)cc1` (stereo not drawn) [Compound 513, 2-[{[4-({4-[(3,3-dimethylpiperidin-1-yl)methyl]phenyl}ethynyl)phenyl]carbonyl}(methyl)amino]-N-hydroxy-N′-methylpropanediamide], the IC50 is less than 0.01 µM.

As to `CCn1cc(C#Cc2ccc(C(=O)N(C)C(C(=O)NC)C(=O)NO)cc2)cn1` (stereo not drawn) [Compound 517, 2-[({4-[(1-ethyl-1H-pyrazol-4-yl)ethynyl]phenyl}carbonyl)(methyl)amino]-N-hydroxy-N′-methylpropanediamide], the IC50 fell in the range of 0.01 to 0.1 µM.

With `CNC(=O)C(C(=O)NO)N(C)C(=O)c1ccc(C#Cc2ccc(CN3CC4(CCC4)C3)cc2)cc1` (stereo not drawn) [Compound 524, 2-{[(4-{[4-(2-azaspiro[3.3]hept-2-ylmethyl)phenyl]ethynyl}phenyl)carbonyl](methyl)amino}-N-hydroxy-N′-methylpropanediamide], the IC50 was in the range of 0.01 to 0.1 µM.

The assay is the same for the next values; noted with them: inhibitory activity on Pseudomonas aeruginosa LpxC enzyme, class symbols A/B/C; read-out: Enzyme inhibitory activity.
With `CNC(=O)C(C(=O)NO)N(C)C(=O)c1ccc(C#Cc2ccc(CNCCC(C)(C)O)cc2)cc1` (stereo not drawn) [Compound 323, N-hydroxy-2-[({4-[(4-{[(3-hydroxy-3-methylbutyl)amino]methyl}phenyl)ethynyl]phenyl}carbonyl)(methyl)amino]-N′-methylpropanediamide], the IC50 lay in the range of 0.01 to 0.1 µM.

Regarding `CNC(=O)C(C(=O)NO)N(C)C(=O)c1ccc(-c2ncccc2F)cc1` (stereo not drawn) [Compound 107, 2-{[4-(3-fluoropyridin-2-yl)benzoyl](methyl)amino}-N-hydroxy-N′-methylpropanediamide], the IC50 is greater than 0.1 µM.

For `CNC(=O)C(C(=O)NO)N(C)C(=O)c1ccc(-c2ccc(CCOC)cc2)cc1` (stereo not drawn) [Compound 246, N-hydroxy-2-[{[4′-(2-methoxyethyl)biphenyl-4-yl]carbonyl}(methyl)amino]-N′-methylpropanediamide], the IC50 is less than 0.01 µM.

Regarding `CNC(=O)C(C(=O)NO)N(C)C(=O)c1ccc(-c2ccc(NC)c(OC)c2)cc1` (stereo not drawn) [Compound 50, N-hydroxy-2-[{[3′-methoxy-4′-(methylamino)biphenyl-4-yl]carbonyl}(methyl)amino]-N′-methylpropanediamide], the IC50 lay in the range of 0.01 to 0.1 µM.

For `CNC(=O)C(C(=O)NO)N(C)C(=O)c1ccc(-c2ccc(S(C)(=O)=O)cc2)cc1` (stereo not drawn) [Compound 352, N-hydroxy-N′-methyl-2-(methyl {[4′-(methylsulfonyl)biphenyl-4-yl]carbonyl}amino)propanediamide], the IC50 was in the range of 0.01 to 0.1 µM.

On to `CNC(=O)C(C(=O)NO)N(C)C(=O)c1ccc(C#Cc2ccc(NCCO)cc2)cc1` (stereo not drawn) [Compound 183, N-hydroxy-2-{[4-({4-[(2-hydroxyethyl)amino]phenyl}ethynyl)benzoyl](methyl)amino}-N′-methylpropanediamide], for which the IC50 is less than 0.01 µM.

For the compound `O=C(NC(C(=O)NO)C(=O)NCCc1ccccc1)c1ccc(-c2ccc(OCCO)cc2)cc1` (stereo not drawn) [Compound 125, N-hydroxy-2-({[4′-(2-hydroxyethoxy)biphenyl-4-yl]carbonyl}amino)-N′-(2-phenylethyl)propanediamide], the IC50 lay in the range of 0.01 to 0.1 µM.

Regarding `CNC(=O)C(C(=O)NO)N(C)C(=O)c1ccc(-c2ccc(OCC3(C)COC3)cc2)cc1` (stereo not drawn) [Compound 95, N-hydroxy-N′-methyl-2-[methyl({4′-[(3-methyloxetan-3-yl)methoxy]biphenyl-4-yl}carbonyl)amino]propanediamide], the IC50 is less than 0.01 µM.

`CCCOc1ccc(-c2ccc(C(=O)N(C)C(C(=O)NC)C(=O)NO)cc2)cn1` (stereo not drawn) [Compound 467, N-hydroxy-N′-methyl-2-(methyl {[4-(6-propoxypyridin-3-yl)phenyl]carbonyl}amino)propanediamide]: the IC50 was less than 0.01 µM.

Regarding `CCCNC(=O)C(C(=O)NO)N(C)C(=O)c1ccc(-c2ccccc2)cc1` (stereo not drawn) [Compound 171, 2-[(biphenyl-4-ylcarbonyl)(methyl)amino]-N-hydroxy-N′-propylpropanediamide], the IC50 is greater than 0.1 µM.

Consider `CNC(=O)C(C(=O)NO)N(C)C(=O)c1ccc(C#Cc2ccc(C(C)N3CCOCC3)cc2)cc1` (stereo not drawn) [Compound 367, N-hydroxy-N′-methyl-2-(methyl {[4-({4-[1-(morpholin-4-yl)ethyl]phenyl}ethynyl)phenyl]carbonyl}amino)propanediamide], for which the IC50 was less than 0.01 µM.

Regarding `CNC(=O)C(C(=O)NO)N(C)C(=O)c1ccc(-c2ccc(C)cc2F)cc1` (stereo not drawn) [Compound 23, 2-{[(2′-fluoro-4′-methylbiphenyl-4-yl)carbonyl](methyl)amino}-N-hydroxy-N′-methylpropanediamide], the IC50 was less than 0.01 µM.

In the case of `CNC(=O)C(C(=O)NO)N(C)C(=O)c1ccc(-c2ccc(N(C)C(=O)OC(C)(C)C)c(C)c2)cc1` (stereo not drawn) [Compound 44, tert-butyl(4′-{[1-(hydroxyamino)-3-(methylamino)-1,3-dioxopropan-2-yl](methyl)carbamoyl}-3-methylbiphenyl-4-yl)methylcarbamate], the IC50 fell in the range of 0.01 to 0.1 µM.

As to `CNC(=O)C(C(=O)NO)N(C)C(=O)c1ccc(-c2c(F)c(F)c(NC)c(F)c2F)cc1` (stereo not drawn) [Compound 72, N-hydroxy-N′-methyl-2-(methyl {[2′,3′,5′,6′-tetrafluoro-4′-(methylamino)biphenyl-4-yl]carbonyl}amino)propanediamide], the IC50 is less than 0.01 µM.

For `Cc1nnc(CNC(=O)C(NC(=O)c2ccc(-c3ccc(OCCO)cc3)cc2)C(=O)NO)s1` (stereo not drawn) [Compound 155, N-hydroxy-2-({[4′-(2-hydroxyethoxy)biphenyl-4-yl]carbonyl}amino)-N′-[(5-methyl-1,3,4-thiadiazol-2-yl)methyl]propanediamide], the IC50 was less than 0.01 µM.

As to `CNC(=O)C(C(=O)NO)N(C)C(=O)c1ccc(-c2ccc(CN3CCOCC3)cc2)cc1` (stereo not drawn) [Compound 232, N-hydroxy-N′-methyl-2-(methyl {[4′-(morpholin-4-ylmethyl)biphenyl-4-yl]carbonyl}amino)propanediamide], the IC50 is 0.01 to 0.1 µM.

On to `CNC(=O)C(C(=O)NO)N(C)C(=O)c1ccc(CCc2ccc(CCN3CCOCC3)cc2)cc1` (stereo not drawn) [Compound 209, N-hydroxy-N′-methyl-2-{methyl[4-(2-{4-[2-(morpholin-4-yl)ethyl]phenyl}ethyl)benzoyl]amino}propanediamide], for which the IC50 was less than 0.01 µM.

Take `CNC(=O)C(C(=O)NO)N(C)C(=O)c1ccc(-c2ccc3c(cnn3C)c2)cc1` (stereo not drawn) [Compound 196, N-hydroxy-N′-methyl-2-{methyl[4-(1-methyl-1H-indazol-5-yl)benzoyl]amino}propanediamide]: the IC50 is less than 0.01 µM.
